Broadly, the IC50 is the concentration that gives 50% inhibition.

Common to all, as to assay: cell-based
Holding throughout (assay type): cell-based

In one assay the target is hNav1.6 (Homo sapiens, UniProt Q9UQD0). Particulars: Table 15; for Nav1.6/Nav1.7: ratio of PX tonic IC50 values; for IC50: read-out: PX hNav1.6 Tonic IC50.
The next assay addresses hNav1.7 (Homo sapiens, UniProt Q15858). Particulars: read-out: PX hNav1.7 Tonic IC50.
Another assay deals with hNav1.4 (Homo sapiens, UniProt P35499). Particulars: Table 12; for IC50: PatchXpress, tonic block, read-out: PX hNav1.4 Tonic IC50; for Nav1.4/Nav1.7: ratio of PX tonic IC50 values.
The mark [1] stands for this setting: Table 12, PatchXpress, tonic block.

Read-outs that look alike come from different tables or passages of the source.

hNav1.4, sequence (P35499 whole entry): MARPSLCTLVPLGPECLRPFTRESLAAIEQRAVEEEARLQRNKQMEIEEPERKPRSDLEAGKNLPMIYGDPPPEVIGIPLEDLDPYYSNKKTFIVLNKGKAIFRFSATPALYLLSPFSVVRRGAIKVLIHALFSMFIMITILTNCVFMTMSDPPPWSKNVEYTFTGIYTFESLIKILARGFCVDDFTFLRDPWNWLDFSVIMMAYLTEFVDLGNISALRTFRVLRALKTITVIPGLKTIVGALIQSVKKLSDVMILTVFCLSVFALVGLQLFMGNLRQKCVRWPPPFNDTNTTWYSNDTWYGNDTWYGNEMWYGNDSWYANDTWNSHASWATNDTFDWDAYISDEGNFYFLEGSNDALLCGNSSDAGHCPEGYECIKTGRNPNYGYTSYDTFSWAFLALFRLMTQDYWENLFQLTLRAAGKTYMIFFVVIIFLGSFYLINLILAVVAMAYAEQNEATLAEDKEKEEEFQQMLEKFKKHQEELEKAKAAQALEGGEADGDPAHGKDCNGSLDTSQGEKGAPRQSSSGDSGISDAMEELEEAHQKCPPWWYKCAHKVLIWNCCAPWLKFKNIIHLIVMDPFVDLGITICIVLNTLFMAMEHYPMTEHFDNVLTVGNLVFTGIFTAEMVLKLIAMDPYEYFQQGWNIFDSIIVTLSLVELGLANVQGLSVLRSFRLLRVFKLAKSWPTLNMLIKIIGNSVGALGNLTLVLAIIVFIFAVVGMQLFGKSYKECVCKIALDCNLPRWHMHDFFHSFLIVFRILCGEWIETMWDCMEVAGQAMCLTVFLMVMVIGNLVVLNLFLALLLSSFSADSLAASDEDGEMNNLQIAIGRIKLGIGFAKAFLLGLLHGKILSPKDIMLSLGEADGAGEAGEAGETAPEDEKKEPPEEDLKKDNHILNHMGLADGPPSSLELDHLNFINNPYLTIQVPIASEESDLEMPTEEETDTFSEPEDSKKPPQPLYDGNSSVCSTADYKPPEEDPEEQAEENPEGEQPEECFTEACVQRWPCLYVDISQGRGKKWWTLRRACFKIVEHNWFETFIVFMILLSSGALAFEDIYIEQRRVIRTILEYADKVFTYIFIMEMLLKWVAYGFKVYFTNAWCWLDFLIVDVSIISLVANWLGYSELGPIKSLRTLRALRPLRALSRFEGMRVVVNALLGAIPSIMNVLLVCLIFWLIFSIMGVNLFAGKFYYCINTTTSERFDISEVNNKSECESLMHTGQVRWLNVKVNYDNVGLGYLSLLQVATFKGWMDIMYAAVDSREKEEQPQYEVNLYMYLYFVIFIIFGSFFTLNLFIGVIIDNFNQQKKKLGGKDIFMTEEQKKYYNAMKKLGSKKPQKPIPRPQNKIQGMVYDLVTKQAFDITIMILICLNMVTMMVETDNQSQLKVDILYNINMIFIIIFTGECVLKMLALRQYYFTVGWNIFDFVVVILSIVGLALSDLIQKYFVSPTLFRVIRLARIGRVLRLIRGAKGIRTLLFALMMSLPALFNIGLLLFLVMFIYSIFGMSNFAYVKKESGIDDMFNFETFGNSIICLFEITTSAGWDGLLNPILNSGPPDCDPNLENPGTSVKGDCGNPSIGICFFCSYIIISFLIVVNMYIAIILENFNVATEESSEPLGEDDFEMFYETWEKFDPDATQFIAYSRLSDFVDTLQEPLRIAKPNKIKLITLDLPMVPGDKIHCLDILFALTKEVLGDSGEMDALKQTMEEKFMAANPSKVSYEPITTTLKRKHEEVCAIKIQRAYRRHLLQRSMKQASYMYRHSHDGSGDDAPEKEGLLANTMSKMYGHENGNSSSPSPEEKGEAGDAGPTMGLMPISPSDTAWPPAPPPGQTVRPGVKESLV
hNav1.6, sequence (Q9UQD0 whole entry): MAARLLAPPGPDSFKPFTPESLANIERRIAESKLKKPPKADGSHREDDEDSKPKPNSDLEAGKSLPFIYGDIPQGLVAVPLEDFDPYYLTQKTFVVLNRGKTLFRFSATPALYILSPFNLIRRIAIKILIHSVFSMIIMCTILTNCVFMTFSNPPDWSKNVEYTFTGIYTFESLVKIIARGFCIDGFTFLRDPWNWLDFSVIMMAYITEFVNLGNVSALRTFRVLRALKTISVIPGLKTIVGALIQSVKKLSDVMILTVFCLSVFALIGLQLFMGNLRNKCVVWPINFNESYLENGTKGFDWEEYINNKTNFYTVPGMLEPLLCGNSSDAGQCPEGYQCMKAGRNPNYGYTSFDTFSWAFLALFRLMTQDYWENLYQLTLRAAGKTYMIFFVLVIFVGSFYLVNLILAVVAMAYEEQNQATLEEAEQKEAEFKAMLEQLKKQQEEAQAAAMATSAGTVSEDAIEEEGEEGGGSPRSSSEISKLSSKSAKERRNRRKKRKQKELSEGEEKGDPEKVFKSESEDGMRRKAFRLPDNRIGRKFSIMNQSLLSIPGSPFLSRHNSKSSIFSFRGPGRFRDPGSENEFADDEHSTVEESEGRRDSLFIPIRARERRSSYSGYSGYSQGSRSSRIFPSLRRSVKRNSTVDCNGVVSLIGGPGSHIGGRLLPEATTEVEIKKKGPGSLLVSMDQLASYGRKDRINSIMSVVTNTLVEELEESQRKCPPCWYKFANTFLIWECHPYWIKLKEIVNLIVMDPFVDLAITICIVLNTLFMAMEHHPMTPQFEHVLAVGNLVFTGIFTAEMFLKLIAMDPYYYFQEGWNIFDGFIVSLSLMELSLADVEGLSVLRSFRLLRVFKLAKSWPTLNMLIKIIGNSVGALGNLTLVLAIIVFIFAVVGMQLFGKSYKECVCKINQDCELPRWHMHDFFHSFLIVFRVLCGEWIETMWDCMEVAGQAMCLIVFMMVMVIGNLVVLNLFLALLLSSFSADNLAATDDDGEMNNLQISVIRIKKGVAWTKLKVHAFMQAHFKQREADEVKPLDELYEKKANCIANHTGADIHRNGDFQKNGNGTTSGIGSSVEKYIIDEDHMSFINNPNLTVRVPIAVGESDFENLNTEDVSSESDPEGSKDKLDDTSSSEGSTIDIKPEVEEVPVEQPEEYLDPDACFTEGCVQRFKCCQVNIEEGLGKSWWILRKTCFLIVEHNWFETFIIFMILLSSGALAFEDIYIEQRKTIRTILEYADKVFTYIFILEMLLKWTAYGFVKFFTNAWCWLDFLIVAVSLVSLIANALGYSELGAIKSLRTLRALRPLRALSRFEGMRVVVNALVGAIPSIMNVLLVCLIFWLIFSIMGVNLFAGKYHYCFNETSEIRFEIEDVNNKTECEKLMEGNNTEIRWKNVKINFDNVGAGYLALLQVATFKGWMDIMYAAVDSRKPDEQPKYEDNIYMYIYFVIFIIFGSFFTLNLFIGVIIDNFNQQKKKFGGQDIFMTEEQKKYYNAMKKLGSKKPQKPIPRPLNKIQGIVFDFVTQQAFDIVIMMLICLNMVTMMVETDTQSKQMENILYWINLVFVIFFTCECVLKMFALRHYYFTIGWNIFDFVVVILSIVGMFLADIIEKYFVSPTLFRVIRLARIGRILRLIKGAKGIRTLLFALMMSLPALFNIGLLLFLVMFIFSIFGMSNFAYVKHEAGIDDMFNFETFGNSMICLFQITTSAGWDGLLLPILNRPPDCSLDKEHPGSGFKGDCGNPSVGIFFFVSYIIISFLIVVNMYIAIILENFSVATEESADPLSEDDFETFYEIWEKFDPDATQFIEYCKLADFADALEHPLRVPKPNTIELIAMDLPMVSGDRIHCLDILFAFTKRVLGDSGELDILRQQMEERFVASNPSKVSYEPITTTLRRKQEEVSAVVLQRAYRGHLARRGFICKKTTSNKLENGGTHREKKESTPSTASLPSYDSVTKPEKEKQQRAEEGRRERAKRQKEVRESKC

In the case of `C#CC[C@H](NC(=O)[C@@H](N)CCC(=O)O)C(=O)N[C@H]1CSSC[C@@H]2NC(=O)[C@@H]3CSSC[C@@H](C(=O)N[C@@H](CCCNC(=N)N)C(=O)N[C@@H](CCCCN)C(=O)N[C@@H](CCC(=O)O)C(=O)N[C@H](C(N)=O)[C@@H](C)CC)NC(=O)[C@H](Cc4c[nH]c5ccccc45)NC(=O)[C@H](CC(C)C)NC(=O)[C@H](CCCCN)NC(=O)[C@H](CSSC[C@H](NC(=O)[C@H]([C@@H](C)O)NC(=O)[C@H](Cc4c[nH]c5ccccc45)NC(=O)[C@H](CCCC)NC(=O)[C@H](Cc4c[nH]c5ccccc45)NC(=O)[C@H](CCCCN)NC(=O)[C@H](CCC(N)=O)NC1=O)C(=O)N[C@@H](CC(=O)O)C(=O)N[C@@H](CO)C(=O)N[C@@H](CCCCN)C(=O)N[C@@H](CCCNC(=N)N)C(=O)N[C@@H](CCC(=O)O)C(=O)N3)NC(=O)[C@H](CCCNC(=N)N)NC(=O)[C@H](CC(C)C)NC(=O)CNC(=O)[C@H](CCC(=O)O)NC2=O` [compound 738], on hNav1.6, the Nav1.6/Nav1.7 is 1071. In addition, the IC50 on hNav1.6 came out at 563 nM; on hNav1.7 (setting [1]) it was 0.563 nM; at hNav1.7 (Table 15) it was 0.525 nM; on hNav1.4, 246 nM. On hNav1.4, the Nav1.4/Nav1.7 came out at 437.

In the case of `C#CC[C@H](N)C(=O)N[C@@H](CCC(=O)O)C(=O)N[C@H]1CSSC[C@@H]2NC(=O)[C@@H]3CSSC[C@@H](C(=O)N[C@@H](CCCNC(=N)N)C(=O)N[C@@H](CCCCN)C(=O)N[C@@H](CCC(=O)O)C(=O)N[C@H](C(N)=O)[C@@H](C)CC)NC(=O)[C@H](Cc4c[nH]c5ccccc45)NC(=O)[C@H](CC(C)C)NC(=O)[C@H](CCCCN)NC(=O)[C@H](CSSC[C@H](NC(=O)[C@H]([C@@H](C)O)NC(=O)[C@H](Cc4c[nH]c5ccccc45)NC(=O)[C@H](CCCC)NC(=O)[C@H](Cc4c[nH]c5ccccc45)NC(=O)[C@H](CCCCN)NC(=O)[C@H](CCC(N)=O)NC1=O)C(=O)N[C@@H](CC(=O)O)C(=O)N[C@@H](CCC(=O)O)C(=O)N[C@@H](CCCCN)C(=O)N[C@@H](CCCNC(=N)N)C(=O)N[C@@H](C)C(=O)N3)NC(=O)[C@H](CCCNC(=N)N)NC(=O)[C@H](CC(C)C)NC(=O)CNC(=O)[C@H](CCC(=O)O)NC2=O` [compound 739], the Nav1.6/Nav1.7 on hNav1.6 worked out at 395. The IC50 on hNav1.6 was found to be 2190 nM; at hNav1.7 (setting [1]) it was 5.55 nM; on hNav1.4, 1280 nM. The Nav1.4/Nav1.7 at hNav1.4 was found to be 231.

Take `C#CC[C@H](NC(=O)[C@@H](N)CCC(=O)O)C(=O)N[C@@H](CCC(=O)O)C(=O)N[C@H]1CSSC[C@@H]2NC(=O)[C@@H]3CSSC[C@@H](C(=O)N[C@@H](CCCNC(=N)N)C(=O)N[C@@H](CCCCN)C(=O)N[C@@H](CCC(=O)O)C(=O)N[C@H](C(N)=O)[C@@H](C)CC)NC(=O)[C@H](Cc4c[nH]c5ccccc45)NC(=O)[C@H](CC(C)C)NC(=O)[C@H](CCCCN)NC(=O)[C@H](CSSC[C@H](NC(=O)[C@H]([C@@H](C)O)NC(=O)[C@H](Cc4c[nH]c5ccccc45)NC(=O)[C@H](CCCC)NC(=O)[C@H](Cc4c[nH]c5ccccc45)NC(=O)[C@H](CCCCN)NC(=O)[C@H](CCC(N)=O)NC1=O)C(=O)N[C@@H](CC(=O)O)C(=O)N[C@@H](CCC(=O)O)C(=O)N[C@@H](CCCCN)C(=O)N[C@@H](CCCNC(=N)N)C(=O)N[C@@H](C)C(=O)N3)NC(=O)[C@H](CCCNC(=N)N)NC(=O)[C@H](CC(C)C)NC(=O)CNC(=O)[C@H](CCC(=O)O)NC2=O` [compound 741]: on hNav1.6, the Nav1.6/Nav1.7 is recorded as 1014 and the IC50 worked out at 5660 nM. For the same molecule, on hNav1.7 (setting [1]), the IC50 is 5.59 nM. For the same molecule, on hNav1.4, the IC50 stood at 1680 nM and the Nav1.4/Nav1.7 was 302.

(Values after patent publication US10344060B2 (priority 2013, dated 2019).)
